ChEMBL document CHEMBL1147521 (Bioorg Med Chem Lett, 2004)

How the values were obtained:
[1] = molecular target: T1, Prostaglandin G/H synthase 1 (Ovis aries, UniProt P05979); assay: In vitro inhibitory activity against prostaglandin G/H synthase 1 from ovine
T1 sequence (P05979 whole entry): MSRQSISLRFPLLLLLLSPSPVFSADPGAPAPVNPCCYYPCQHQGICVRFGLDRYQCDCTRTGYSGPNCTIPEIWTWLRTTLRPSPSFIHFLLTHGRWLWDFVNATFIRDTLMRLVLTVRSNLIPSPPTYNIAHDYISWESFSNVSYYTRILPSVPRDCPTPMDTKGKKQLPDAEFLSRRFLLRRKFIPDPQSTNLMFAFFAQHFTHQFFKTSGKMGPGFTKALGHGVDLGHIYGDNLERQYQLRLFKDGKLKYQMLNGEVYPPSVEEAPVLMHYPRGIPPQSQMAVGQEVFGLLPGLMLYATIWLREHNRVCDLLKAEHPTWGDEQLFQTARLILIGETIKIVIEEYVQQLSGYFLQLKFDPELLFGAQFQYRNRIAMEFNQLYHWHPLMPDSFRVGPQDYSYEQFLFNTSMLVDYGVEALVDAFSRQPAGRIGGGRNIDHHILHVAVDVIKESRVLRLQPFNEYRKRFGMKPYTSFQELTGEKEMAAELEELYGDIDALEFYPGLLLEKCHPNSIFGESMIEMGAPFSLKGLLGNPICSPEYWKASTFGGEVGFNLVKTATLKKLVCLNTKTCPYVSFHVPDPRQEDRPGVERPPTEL

[2] = molecular target: T2, Prostaglandin G/H synthase 2 (Ovis aries, UniProt P79208); assay: In vitro inhibitory activity against prostaglandin G/H synthase 2 from ovine
T2 sequence (P79208 whole entry): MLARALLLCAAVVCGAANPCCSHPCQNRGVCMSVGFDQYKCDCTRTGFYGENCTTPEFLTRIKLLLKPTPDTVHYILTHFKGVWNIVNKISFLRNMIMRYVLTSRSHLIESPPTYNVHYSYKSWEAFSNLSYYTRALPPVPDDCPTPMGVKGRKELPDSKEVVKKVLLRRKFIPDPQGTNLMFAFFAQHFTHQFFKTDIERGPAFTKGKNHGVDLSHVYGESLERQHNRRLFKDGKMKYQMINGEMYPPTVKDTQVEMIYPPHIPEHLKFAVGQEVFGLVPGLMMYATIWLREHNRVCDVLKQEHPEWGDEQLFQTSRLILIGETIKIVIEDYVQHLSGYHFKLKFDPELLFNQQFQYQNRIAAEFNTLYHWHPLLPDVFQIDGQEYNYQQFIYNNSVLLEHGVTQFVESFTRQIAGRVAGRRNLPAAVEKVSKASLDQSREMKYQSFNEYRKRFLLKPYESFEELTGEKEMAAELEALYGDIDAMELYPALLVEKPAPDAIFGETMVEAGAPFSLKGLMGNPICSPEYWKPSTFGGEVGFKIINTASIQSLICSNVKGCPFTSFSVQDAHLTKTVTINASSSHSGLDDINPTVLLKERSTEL

| IC50 [1] | IC50 [2] | Compound |
| --- | --- | --- |
| 31.5 µM | 11 µM | CS(=O)(=O)c1ccc(C2=C(c3ccc(S(=O)(=O)N=[N+]=[N-])cc3)C(=O)OC2)cc1 |
| 3.2 µM | 4.6 µM | CC(=O)NS(=O)(=O)c1ccc(C2=C(c3ccc(S(C)(=O)=O)cc3)COC2=O)cc1 |
| > 100 µM | > 100 µM | CS(=O)(=O)c1ccc(C2=C(c3ccc(S(N)(=O)=O)cc3)COC2=O)cc1 |
| > 100 µM | 0.05 µM | CC(=O)NS(=O)(=O)c1ccc(C2=C(c3ccc(S(C)(=O)=O)cc3)C(=O)OC2)cc1 |

Further lines, the molecule ahead of its results:

| Compound | IC50 [1] | IC50 [2] |
| --- | --- | --- |
| CS(=O)(=O)c1ccc(C2=C(c3ccc(S(=O)(=O)N=[N+]=[N-])cc3)COC2=O)cc1 | > 100 µM | 3.1 µM |
| CS(=O)(=O)c1ccc(C2=C(c3ccc(S(N)(=O)=O)cc3)C(=O)OC2)cc1 | > 100 µM | > 100 µM |
| CS(=O)(=O)c1ccc(C2=C(c3ccccc3)C(=O)OC2)cc1 [ROFECOXIB] |  | > 0.43 µM |
